In patent US11213511B2, “Composition for preventing or treating SARS coronavirus 2 infection disease” (priority 2020, dated 2022):
“And” between values parts separate entries of the source, which are not always exact repeats. Equal entries are not always repeated. Where two headings read alike, the source gives them in different places.

Tests used:
[1] = test system: severe acute respiratory syndrome coronavirus 2; set-up: species or system Syrian Hamster; details: hamster, in vivo
VERO cell = details: for Viability: 72 hours, MTT; for cell survival: 10 to 20 μM
[2] = target: T1, ACE2 and SARS-CoV-2 Spike S1 protein binding (UniProt P0DTC2+Q9BYF1); test: biochemical
T1 construct: Spike S1, Fc fusion, Avi-tag, Biotin Labeled (SARS-CoV-2) (BPS Bioscience, 100679); Fc fusion; Avi-tag (biotin labeled); His-Tag (Eu-labeled); purchased BPS Bioscience 100705 (ACE2); 100679 (Spike S1)
T1 sequence (Q9BYF1 18-740, one chain of several): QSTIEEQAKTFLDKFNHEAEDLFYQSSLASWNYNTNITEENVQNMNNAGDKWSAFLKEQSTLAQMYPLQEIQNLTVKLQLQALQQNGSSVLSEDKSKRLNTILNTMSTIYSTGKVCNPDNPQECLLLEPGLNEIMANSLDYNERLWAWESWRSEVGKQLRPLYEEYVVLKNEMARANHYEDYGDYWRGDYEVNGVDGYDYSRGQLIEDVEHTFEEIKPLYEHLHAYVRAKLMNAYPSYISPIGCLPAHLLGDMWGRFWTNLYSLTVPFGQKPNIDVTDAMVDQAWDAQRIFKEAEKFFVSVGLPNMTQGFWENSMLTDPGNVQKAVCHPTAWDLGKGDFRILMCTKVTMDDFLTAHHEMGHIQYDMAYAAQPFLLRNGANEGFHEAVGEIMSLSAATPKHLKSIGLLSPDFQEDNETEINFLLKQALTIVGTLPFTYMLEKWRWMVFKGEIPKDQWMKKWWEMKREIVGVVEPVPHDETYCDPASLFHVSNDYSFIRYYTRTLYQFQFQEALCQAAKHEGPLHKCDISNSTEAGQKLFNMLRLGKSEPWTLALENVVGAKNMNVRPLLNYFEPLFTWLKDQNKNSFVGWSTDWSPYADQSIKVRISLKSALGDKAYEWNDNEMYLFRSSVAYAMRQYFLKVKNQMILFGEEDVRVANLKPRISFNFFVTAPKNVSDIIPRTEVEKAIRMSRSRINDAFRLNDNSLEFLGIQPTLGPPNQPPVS

SARS CoV-2 (NCCP-43326) [3] = test: Observation of cell morphology according to medicament treatment; format: cell-based; details: 10 to 20 μM, VERO cell, FIG. 3
SARS-CoV-2 3CL protease = SARS-CoV-2 3CL protease (Severe acute respiratory syndrome coronavirus 2, UniProt P0DTD1); test: biochemical; details: for inhibition at 30 µM: read-out: activity of 3CL protease inhibited
SARS CoV-2 (NCCP-43326) [4] = format: cell-based
[5] = test system: severe acute respiratory syndrome coronavirus 2; test: Medicament efficacy of Sulfinpyrazone in SARS coronavirus 2 infected animal model (Example 7); format: in vivo, Syrian Hamster; details: 50 MPK (50 mg/kg/day), PO twice daily, 4 days of continuous administration, vs virus alone infected group

Structure (SMILES)	Viability (VERO cell; 10 μM) [%]	Viability (VERO cell; 20 μM) [%]	cell survival (VERO cell)	activity at 0.002 µM [2] [%]	activity at 0.005 µM [2] [%]	activity at 0.014 µM [2] [%]	activity at 0.041 µM [2] [%]	activity at 0.123 µM [2] [%]	activity at 0.37 µM [2] [%]	activity at 1.111 µM [2] [%]	activity at 3.333 µM [2] [%]	activity at 10 µM [2] [%]	activity at 30 µM [2] [%]	efficacy in inhibiting the binding of ACE2 and Spike S1 proteins [2]	% Activity ([2]; 10 µM) [%]	change in cell morphology of virus-infected cells (SARS CoV-2 (NCCP-43326) [3])	activity at 0.001 µM (SARS-CoV-2 3CL protease) [%]	activity at 0.003 µM (SARS-CoV-2 3CL protease) [%]	activity at 0.01 µM (SARS-CoV-2 3CL protease) [%]	activity at 0.03 µM (SARS-CoV-2 3CL protease) [%]	also measured
CCC(CC)COC(=O)[C@H](C)N[P@](=O)(OC[C@H]1O[C@@](C#N)(c2ccc3c(N)ncnn23)[C@H](O)[C@@H]1O)Oc1ccccc1 [Remdesivir]	–	–	–	–	–	–	–	–	–	–	–	–	–	–	–	–	–	–	–	–	gross cure rate [1]: 44.3%
O=C1C(CC[S+]([O-])c2ccccc2)C(=O)N(c2ccccc2)N1c1ccccc1 (racemic) [Sulfinpyrazone, 1,2-diphenyl-4-[2-(phenylsulfinyl)ethyl]pyrazolidine-3,5-dione]	108.3 ± 0.4	99.6 ± 7.3	excellent cell survival	96	97	100	98	100	99	101	98	100	99	no efficacy	95	morphology change was small	96	104	100	103	TR-FRET ratio [2]: 0.96 and 0.97 and 0.95 and 0.93 and 0.94; % Activity ([2]; 0.002 µM): 95%; activity at 0.1 µM (SARS-CoV-2 3CL protease): 103%; activity at 0.3 µM (SARS-CoV-2 3CL protease): 102%; activity at 1 µM (SARS-CoV-2 3CL protease): 99%; activity at 3 µM (SARS-CoV-2 3CL protease): 92%; activity at 10 µM (SARS-CoV-2 3CL protease): 90%; activity at 30 µM (SARS-CoV-2 3CL protease): 82%; % Activity (SARS-CoV-2 3CL protease; 0.001 µM): 101%; % Activity (SARS-CoV-2 3CL protease; 0.003 µM): 101%; % Activity (SARS-CoV-2 3CL protease; 0.01 µM): 101%; % Activity (SARS-CoV-2 3CL protease; 0.3 µM): 94%; % Activity (SARS-CoV-2 3CL protease; 1 µM): 98%; % Activity (SARS-CoV-2 3CL protease; 3 µM): 95%; % Activity (SARS-CoV-2 3CL protease; 10 µM): 95%; % Activity (SARS-CoV-2 3CL protease; 30 µM): 80%; inhibition at 30 µM (SARS-CoV-2 3CL protease): ~20%; CPE Reduction (%) (SARS CoV-2 (NCCP-43326) [4]): 33.1 ± 7.0% and 40.7 ± 8.0%; Gross pneumonia lesion amelioration percentage (%) [5]: 15.6%
COc1cc(C(=O)NS(=O)(=O)c2ccccc2C)ccc1Cc1cn(C)c2ccc(NC(=O)OC3CCCC3)cc12 [Zafirlukast, cyclopentyl3-{2-methoxy-4-[(o-tolylsulfonyl)carbamoyl]benzyl}-1-methyl-1H-indol-5-ylcarbamate]	109.7 ± 2.8	89.3 ± 0.7	excellent cell survival	91	96	92	99	97	101	93	102	96	95	no efficacy	98	morphology change was small	100	95	94	97	% Activity ([2]; 0.005 µM): 94%; activity at 0.1 µM (SARS-CoV-2 3CL protease): 95%; activity at 0.3 µM (SARS-CoV-2 3CL protease): 95%; activity at 1 µM (SARS-CoV-2 3CL protease): 90%; activity at 3 µM (SARS-CoV-2 3CL protease): 89%; activity at 10 µM (SARS-CoV-2 3CL protease): 78%; activity at 30 µM (SARS-CoV-2 3CL protease): 52%; % Activity (SARS-CoV-2 3CL protease; 0.003 µM): 98%; % Activity (SARS-CoV-2 3CL protease; 0.01 µM): 103%; % Activity (SARS-CoV-2 3CL protease; 0.03 µM): 99%; % Activity (SARS-CoV-2 3CL protease; 0.3 µM): 98%; % Activity (SARS-CoV-2 3CL protease; 3 µM): 87%; % Activity (SARS-CoV-2 3CL protease; 10 µM): 77%; % Activity (SARS-CoV-2 3CL protease; 30 µM): 55%; inhibition at 30 µM (SARS-CoV-2 3CL protease): ≥ 45%; CPE Reduction (%) (SARS CoV-2 (NCCP-43326) [4]): 60.1 ± 7.1% and 75.6 ± 3.9%; amelioration effects in the gross lung lesion [1]: very excellent amelioration effects; amelioration in bilateral pneumonia, pulmonary edema, and pulmonary bleeding aspects ([1]; po): excellent amelioration; treatment effect compared to the control medicament Remdesivir ([1]; po): superior treatment effect
